Read-outs that look alike come from different tables or passages of the source.
How the values were obtained:
[1] = Foam quality grading upon release from the aerosol container; type: physicochemical; conditions: active agent in stock of PEG-400 97.5, hydroxypropyl cellulose 0.5, steareth 2 2.0 (first Example 29)
From the text: Foam quality can be graded as follows:
Grade FG (fairly good): a moderate amount of creaminess noticeable, bubble structure is noticeable; upon spreading on the skin the product dulls rapidly and becomes somewhat lower in apparent viscosity.
Grade F (fair): very little creaminess noticeable, larger bubble structure than a “fairly good” foam, upon spreading on the skin it becomes thin in appearance and watery.
Grade P (poor): no creaminess noticeable, large bubble structure, and when spread on the skin it becomes very thin and watery in appearance.
Grade VP (very poor): dry foam, large very dull bubbles, difficult to spread on the skin.

[2] = Shakability of the composition; type: physicochemical
From the text: ‘Shakability’ means that the composition contains some or sufficient flow to allow the composition to be mixed or remixed on shaking. That is, it has fluid or semi fluid properties. A breakable foam is that is thermally stable, yet breaks under sheer force.
‘Shakability’ means that the composition contains some or sufficient flow to allow the composition to be mixed or remixed on shaking. That is, it has fluid or semi fluid properties. In some very limited cases it may still be possible to have a foamable composition which is flowable but not apparently shakable.

[3] = Foam appearance (color, odor, form); type: physicochemical; set-up: key to ODOR: No odor (N.O.); key to COLOR: white (W)
[4] = cited from earlier work
[5] = Solubility of the active agent in solvents/carriers; type: physicochemical; conditions: in the polyol and DMI mixture (Example 19 composition)
candida albicans = assay: Comparative in-vitro antifungal activity (Petri dish spreading); type: cell-based
From the text: An exemplary case for the inclusion of an anti-infective agent in a hygroscopic composition is provided herewith. […] Thus, combining an antifungal agent in a hygroscopic composition results in an expansion of the spectrum of infective strains that can benefit form the therapy, and furthermore, in can render an improved effect of such a composition on mixed infections or in infections that are not accurately diagnosed.
A comparative in-vitro study was set to evaluate the effect of Composition A, consisting of 2% terbinafine, 95.3% gr. polyethylene glycol, 0.5% hydroxypropyl cellulose and 2.2% steareth-2, in comparison with Composition B (an oil in water emulsion containing 2% terbinafine) and Composition C a commercial 1% bifonazole cream.
Three fungal strains (microsporum canis, trichophyton mentagrophytes and trichophyton rubrum) and one yeast (candida albicans) were seeded in the center of a Petri dish, and then, were surrounded by a film containing each of the compositions, using a swab, soaked with each of the compositions. The proliferation and spreading of the microorganisms was followed up for 14 day by visual and photographic observations.

[6] = active agent in stock of PEG-400 97.5, hydroxypropyl cellulose 0.5, steareth 2 2.0 (first Example 29)
[7] = active agent in stock of propylene glycol 46, glycerin 33, dimethyl isosorbide 15, stearyl alcohol, hydroxypropyl cellulose, laureth-4, GMS/PEG 100 stearate (Example 30)
[8] = active agent in stock of propylene glycol 91, stearyl alcohol 2, Klucel EF 2, laureth-4 2, glyceryl monostearate/PEG 100 stearate 3 (second Example 29)

Row | Compound | QUALITY [1] | SHAKABILITY [2, 6] | SHAKABILITY [2, 7] | SHAKABILITY [2, 8] | COLOR [3, 6] | ODOR [3, 6] | COLOR [3, 7] | ODOR [3, 7] | COLOR [3, 8] | ODOR [3, 8] | solubility ([4]; in mineral oil and other commonly used ointment solvents) | solubility [5] | inhibition of the spreading of candida albicans (candida albicans; control preparation, same concentration in an emulsion base) | inhibition of the spreading of candida albicans (candida albicans; dissolved in a hygroscopic carrier) | solubility ([4]; in common formulation excipients)
1 | O=C(O)Cc1ccccc1Nc1c(Cl)cccc1Cl [Diclofenac sodium] | G+ | Yes | Yes | Yes | W | N.O | W | N.O | W | N.O |  |  |  |  | 
2 | C/C(=C\C(=O)OCCCCCCCCC(=O)O)C[C@@H]1OC[C@H](C[C@@H]2O[C@H]2[C@@H](C)[C@H](C)O)[C@@H](O)[C@H]1O [Mupirocin] |  | Yes |  | Yes | W | N.O |  |  | W | N.O | practically insoluble |  |  |  | 
3 | Nc1nc2c(ncn2COCCO)c(=O)[nH]1 [Acyclovir] |  | Yes | Yes | Yes | W | N.O | O.W | N.O | O.W | N.O |  | not fully soluble |  |  | 
4 | CN(C/C=C/C#CC(C)(C)C)Cc1cccc2ccccc12 [terbinafine] |  |  |  |  |  |  |  |  |  |  |  |  | not effective | effectively inhibited the spreading | hard to dissolve
